Assay results as given in patent publication US8318973B2, “Functionalized sinapic acid and methyl sinapate” (Bezwada Biomedical, LLC, priority 2005, dated 2012).

Assay: In vitro hydrolysis of functionalized phenolics in pH 7.4 buffer at reflux
Format: physicochemical
Details: 500 mg compound in 50 mL pH 7.4 buffer, reflux temperature (100° C.), monitored by TLC
Description: In Vitro Hydrolysis of Functionalized Phenolics
A few selected compounds were examined for the rate of hydrolysis by conducting in vitro hydrolysis studies at reflux temperature (100° C.). For each experiment, 500 mg of a functionalized compound and 50 mL of pH 7.4 buffer solution (purchased from Aldrich chemical company) were charged into a 100 mL round bottom flask fitted with a condenser and the contents were refluxed. In vitro hydrolysis of the functionalized phenolic was monitored by thin layer chromatography (TLC) using corresponding starting material (original amino acid) as a control. In vitro hydrolysis was continued at reflux until the functionalized molecule hydrolyzed to the starting compound.

Row | Compound | time in which the functionalized compound was hydrolyzed to the starting compound
1 | COC(=O)COC(=O)COc1ccc(C(=O)OCC(=O)OC)cc1 [Example 77, 4-Methoxycarbonylmethoxycarbonylmethoxy-benzoic acid methoxycarbonyl methyl ester] | 26.5 h
2 | COC(=O)COC(=O)c1ccc(OCC(=O)OC)cc1 [Example 78, 4-Methoxycarbonylmethoxy-benzoic acid methoxycarbonylmethyl ester] | 33.0 h
3 | COC(=O)COC(=O)COc1ccccc1C(=O)OCC(=O)OC [Example 81, 2-Methoxycarbonylmethoxycarbonylmethoxy-benzoic acid methoxycarbonyl methyl ester] | two
4 | COC(=O)COC(=O)c1ccccc1OCC(=O)OC [Example 79, 2-Methoxycarbonylmethoxy-benzoic acid methoxycarbonylmethyl ester] | eight
5 | COC(=O)C(C)OC(=O)COc1ccc(OCC(=O)OC(C)C(=O)OC)cc1 (stereo not shown) [Example 85, 2-{2-[4-(1-Methoxycarbonyl-ethoxycarbonylmethoxy)-phenoxy]-acetoxy}-propionic acid methyl ester] | two

Other lines, results leading:

Row | time in which the functionalized compound was hydrolyzed to the starting compound | Compound
6 | three | COC(=O)COC(=O)COc1ccc(N)cc1 [Example 96, (4-Amino-phenoxy)-acetic acid methoxycarbonylmethyl ester]
7 | ten | COC(=O)COC(=O)COc1ccc(-c2coc3cc(OCC(=O)OCC(=O)OC)ccc3c2=O)cc1 [Example 98, [4-(7-Methoxycarbonylmethoxycarbonylmethoxy-4-oxo-4H-chromen-3-yl)-phenoxy]-acetic acid methoxycarbonylmethyl ester]
8 | four | COC(=O)COC(=O)COc1ccc2cc(C(C)C(=O)OCC(=O)OC)ccc2c1 (stereo not shown) [Example 90, 2-(6-Methoxycarbonylmethoxycarbonylmethoxy-naphthalen-2-yl)-propionic acid Methoxy Carbonylmethyl ester]
9 | four | COC(=O)COC(=O)C(C)c1ccc2cc(OCC(=O)OC)ccc2c1 (stereo not shown) [Example 92, 2-(6-Methoxycarbonylmethoxy-naphthalen-2-yl)-propionic acid Methoxy Carbonyl methyl ester]
10 | one | COC(=O)COC(=O)COc1ccc(OCC(=O)OCC(=O)OC)cc1 [Example 84, (4-Methoxycarbonylmethoxycarbonylmethoxy-phenoxy)-acetic acid methoxycarbonyl methyl ester]
